Measured values taken from patent US20100323033A1, “CANCER SENSITIZER COMPRISING CHLOROGENIC ACID” (priority 2007, published 2010).

Test system: Human pancreatic carcinoma cell line AsPC-1 (doxorubicin resistant)
Assay: XTT assay of anticancer agent sensitivity in doxorubicin-resistant AsPC-1 cells
Type: cell-based
Settings: 48 hrs, FIG. 1
Procedure: Human pancreatic carcinoma cell line AsPC-1 (doxorubicin resistant) was purchased from ATCC (American Type Culture Collection, Manassas, Va., USA). AsPC-1 cell lines were maintained in media supplemented with 10% fetal bovine serum (Gibco BRL) at 37° C. in a humid 5% CO2 atmosphere, and subcultured every two or three days. XTT assay was conducted to examine whether chlorogenic acid increases the anticancer agent sensitivity. A modified MTT assay, XTT assay is a colorimetric method that determines the relative number of living cells, after treating cells with a compound degraded by a specific enzyme. AsPC-1 cells were seeded in 96-well plates (2×10^4 per well), and cultured for 24 hrs. The cells were treated with 0, 5, and 10 μM of doxorubicin, and 0, 5, 10, and […] of chlorogenic acid, and incubated for 48 hrs. 0.1 ml of active solution and 5 ml of XTT (2,3-Bis{2-methoxy-4-nitro-5[(sulfenylamino) carbonyl]-2H-tetrazolium-hydroxide}) were added to the 96-well plates, and 50 μl of reaction solution was added to each well, followed by incubation for 2 hrs. The plates were gently shaken for staining, and the absorbance was measured at 450 nm using a VERSAmax220 Automatic Microplate Reader (Molecular Devices Corp.).

SMILES: O=C(/C=C/c1ccc(O)c(O)c1)O[C@@H]1C[C@](O)(C(=O)O)C[C@@H](O)[C@H]1O [chlorogenic acid, 3-[[3-(3,4-dihydroxyphenyl)-1-oxo-2-propenyl]oxy]-1,4,5-trihydroxycyclohexanecarboxylic acid]
- dependence of cancer cell viability on chlorogenic acid concentration (combination with doxorubicin): decreased, as the concentration of chlorogenic acid was increased
- decrease of viability of cancer cells with chlorogenic acid plus anticancer agent, compared to anticancer agent alone (doxorubicin 0, 5, 10 μM with chlorogenic acid 0, 5, 10, 20μ, absorbance 450 nm): 30%
